The target in the experiment is T1, A1 receptor (Sus scrofa, UniProt I3LEN5).
T1 sequence (I3LEN5 1-326): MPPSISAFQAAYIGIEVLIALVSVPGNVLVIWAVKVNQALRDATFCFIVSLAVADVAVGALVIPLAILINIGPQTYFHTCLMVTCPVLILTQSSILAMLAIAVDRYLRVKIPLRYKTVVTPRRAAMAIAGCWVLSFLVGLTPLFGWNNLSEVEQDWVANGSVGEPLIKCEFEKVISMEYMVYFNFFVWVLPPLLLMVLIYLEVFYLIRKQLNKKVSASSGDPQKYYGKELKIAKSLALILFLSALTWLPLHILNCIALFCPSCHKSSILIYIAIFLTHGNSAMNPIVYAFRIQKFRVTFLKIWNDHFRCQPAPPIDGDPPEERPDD
Put plainly: Competitive binding assay, pig striatum membrane prep, [3H]CPX. The conditions noted are these: [3H]CPX 2 nM, pig striatal membranes. How it is done: Competitive Binding Assay Pig striatum were prepared by homogenation in 50 mM Tris buffer (5× volume of tissue mass pH=7.4). After centrifilgation at 19,000 rpm for 25 minutes at 4° C., the supernatant was discarded, and the process was repeated twice. Compositions of this invention were assayed to determine their affinity for the A1 receptor in a pig striatum membrane prep or a DDT, membrane prep. Briefly, 0.2 mg of pig striatal membranes or DDT, cell membranes were treated with adenosine deaminase and 50 mM Tris buffer (pH=7.4) followed by mixing. To the pig membranes was added 2 μL of serially diluted DMSO stock solution of the compounds of this invention at concentrations ranging from 100 microM to 10 nM. The control received 2 microL of DMSO alone, then the antagonist [^3H] 8-cyclopentylxanthine (CPX) for pig striatum or the agonist [^3H] 2-chloro-6-cyclopentyladenosine (CCPA) for DDT, membranes in Tris buffer (50 mnM, pH of 7.4) was added to achieve a final concentration of 2 nM. After incubation at 23 C for 2 h, the solutions were filtered using a membrane harvester using multiple washing of the membranes (3×). The filter disks were counted in scintillation cocktail affording the amount of displacement of triated CPX or by the competitive binding compositions of this invention. […]

Regarding `CNC(=O)OC[C@H]1O[C@@H](n2cnc3c(N[C@@H]4CCOC4)ncnc32)[C@H](O)[C@@H]1O` [Compound 6, (5-16[((3R)oxolan-3-yl)aminolpurin-9-yl)(3S,2R,4R,5R)-3,4dihydroxyoxolan-2yl)methoxyl-N-methylearboxamide], the Ki stood at 228 nM. In other words, the sub-micromolar range.

A word on the Ki: it is a measure of affinity in units of concentration, obtained from inhibition or displacement. Low readings indicate a stronger hold on the target, high ones a looser hold on the target.

Source of the values: US20020037872A1, “N6 heterocyclic 5' modified adenosine derivatives” (CV Therapeutics, Inc., priority 1999, published 2002).
